Results published in ChEMBL document CHEMBL5291721, “A preclinical secondary pharmacology resource illuminates target-adverse drug reaction associations of marketed drugs” (Nat Commun, 2023).

How the values were obtained:
[1] = target: T1, Muscarinic acetylcholine receptor M1 (Homo sapiens, UniProt P11229); format: functional
T1 sequence (P11229 whole entry): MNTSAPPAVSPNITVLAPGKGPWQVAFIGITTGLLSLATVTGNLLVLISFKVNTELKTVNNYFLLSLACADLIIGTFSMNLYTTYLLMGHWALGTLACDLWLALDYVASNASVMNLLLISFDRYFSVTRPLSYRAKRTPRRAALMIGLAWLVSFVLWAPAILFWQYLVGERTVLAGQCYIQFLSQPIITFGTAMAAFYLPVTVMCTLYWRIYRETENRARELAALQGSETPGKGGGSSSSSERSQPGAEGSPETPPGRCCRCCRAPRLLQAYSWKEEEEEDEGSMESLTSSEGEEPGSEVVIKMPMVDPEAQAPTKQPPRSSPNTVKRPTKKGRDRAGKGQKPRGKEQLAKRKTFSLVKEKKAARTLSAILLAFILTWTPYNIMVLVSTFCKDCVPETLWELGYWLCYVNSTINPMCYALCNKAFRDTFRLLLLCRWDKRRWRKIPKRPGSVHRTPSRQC

Adenosine receptor A3 = target: T2, Adenosine receptor A3 (Homo sapiens, UniProt P0DMS8)
T2 sequence (P0DMS8 whole entry): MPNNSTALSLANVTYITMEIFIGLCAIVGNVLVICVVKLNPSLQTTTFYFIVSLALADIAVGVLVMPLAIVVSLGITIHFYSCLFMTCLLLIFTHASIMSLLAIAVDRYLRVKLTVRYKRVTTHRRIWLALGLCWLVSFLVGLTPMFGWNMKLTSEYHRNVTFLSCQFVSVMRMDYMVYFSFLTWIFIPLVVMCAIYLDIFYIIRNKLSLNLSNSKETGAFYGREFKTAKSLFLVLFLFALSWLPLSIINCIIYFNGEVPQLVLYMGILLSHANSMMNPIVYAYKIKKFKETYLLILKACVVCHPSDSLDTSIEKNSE

Motilin receptor = Motilin receptor (Homo sapiens, UniProt O43193)
[2] = target: T3, Prostaglandin G/H synthase 1 (Rattus norvegicus, UniProt Q63921); format: functional
T3 sequence (Q63921 whole entry): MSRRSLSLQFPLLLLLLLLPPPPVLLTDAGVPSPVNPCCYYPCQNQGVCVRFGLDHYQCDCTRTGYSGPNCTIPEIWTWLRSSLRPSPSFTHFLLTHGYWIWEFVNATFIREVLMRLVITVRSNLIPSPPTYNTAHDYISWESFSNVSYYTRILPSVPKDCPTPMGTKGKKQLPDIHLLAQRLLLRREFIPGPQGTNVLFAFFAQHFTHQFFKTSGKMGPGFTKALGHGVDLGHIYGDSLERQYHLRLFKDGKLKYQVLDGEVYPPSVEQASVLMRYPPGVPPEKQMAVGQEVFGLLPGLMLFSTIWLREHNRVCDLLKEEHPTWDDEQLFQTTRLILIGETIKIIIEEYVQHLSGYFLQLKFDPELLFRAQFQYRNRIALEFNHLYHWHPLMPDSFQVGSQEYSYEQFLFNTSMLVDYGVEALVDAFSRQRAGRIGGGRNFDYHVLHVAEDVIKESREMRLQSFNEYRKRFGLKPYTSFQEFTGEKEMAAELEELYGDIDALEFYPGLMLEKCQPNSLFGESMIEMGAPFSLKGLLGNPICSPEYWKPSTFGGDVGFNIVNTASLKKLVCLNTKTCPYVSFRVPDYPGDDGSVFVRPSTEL

[3] = target: 5-hydroxytryptamine receptor 2A (Homo sapiens, UniProt P28223); format: functional, cell-based
Progesterone receptor = target: T4, Progesterone receptor (Homo sapiens, UniProt P06401); format: functional
T4 sequence (P06401 whole entry): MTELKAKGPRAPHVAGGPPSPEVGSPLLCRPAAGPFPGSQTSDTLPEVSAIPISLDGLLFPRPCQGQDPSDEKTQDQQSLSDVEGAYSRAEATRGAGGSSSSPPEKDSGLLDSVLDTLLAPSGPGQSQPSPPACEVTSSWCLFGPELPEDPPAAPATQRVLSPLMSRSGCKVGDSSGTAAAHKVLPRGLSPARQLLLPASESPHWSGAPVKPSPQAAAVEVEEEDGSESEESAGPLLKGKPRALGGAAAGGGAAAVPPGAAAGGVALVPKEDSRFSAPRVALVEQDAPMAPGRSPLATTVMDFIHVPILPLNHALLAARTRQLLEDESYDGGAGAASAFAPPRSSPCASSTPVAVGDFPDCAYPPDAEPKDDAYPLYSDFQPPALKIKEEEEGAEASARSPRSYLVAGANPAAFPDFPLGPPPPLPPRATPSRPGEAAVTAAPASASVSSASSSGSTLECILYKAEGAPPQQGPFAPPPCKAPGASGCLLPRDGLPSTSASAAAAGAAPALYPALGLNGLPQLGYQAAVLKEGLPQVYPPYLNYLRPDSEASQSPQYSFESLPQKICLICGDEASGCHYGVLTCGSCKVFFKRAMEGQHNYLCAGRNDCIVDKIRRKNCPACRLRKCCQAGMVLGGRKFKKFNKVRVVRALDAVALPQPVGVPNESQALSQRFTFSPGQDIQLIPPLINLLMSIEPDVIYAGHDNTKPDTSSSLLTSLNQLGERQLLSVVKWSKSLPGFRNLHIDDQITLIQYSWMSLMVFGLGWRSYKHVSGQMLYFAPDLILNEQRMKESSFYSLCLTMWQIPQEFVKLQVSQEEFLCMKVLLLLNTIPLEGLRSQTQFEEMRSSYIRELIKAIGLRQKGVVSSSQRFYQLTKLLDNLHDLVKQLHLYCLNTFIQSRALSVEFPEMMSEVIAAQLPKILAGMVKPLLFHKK
Also: assay procedure not described here.

Sequence of 5-hydroxytryptamine receptor 2A (P28223 whole entry): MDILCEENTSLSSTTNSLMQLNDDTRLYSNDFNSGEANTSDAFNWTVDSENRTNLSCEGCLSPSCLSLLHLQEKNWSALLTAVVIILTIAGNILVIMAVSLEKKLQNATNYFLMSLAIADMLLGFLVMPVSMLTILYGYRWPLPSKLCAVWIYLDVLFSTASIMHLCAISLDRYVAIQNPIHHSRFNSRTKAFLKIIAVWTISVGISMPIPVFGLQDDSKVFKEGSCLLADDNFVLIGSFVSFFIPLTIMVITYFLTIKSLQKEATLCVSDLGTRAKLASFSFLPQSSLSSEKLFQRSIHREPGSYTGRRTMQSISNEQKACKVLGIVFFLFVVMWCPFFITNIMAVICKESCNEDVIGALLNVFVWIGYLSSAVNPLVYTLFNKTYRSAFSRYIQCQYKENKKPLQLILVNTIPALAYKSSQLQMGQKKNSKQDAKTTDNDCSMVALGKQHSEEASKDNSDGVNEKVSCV
Sequence of Motilin receptor (O43193 whole entry): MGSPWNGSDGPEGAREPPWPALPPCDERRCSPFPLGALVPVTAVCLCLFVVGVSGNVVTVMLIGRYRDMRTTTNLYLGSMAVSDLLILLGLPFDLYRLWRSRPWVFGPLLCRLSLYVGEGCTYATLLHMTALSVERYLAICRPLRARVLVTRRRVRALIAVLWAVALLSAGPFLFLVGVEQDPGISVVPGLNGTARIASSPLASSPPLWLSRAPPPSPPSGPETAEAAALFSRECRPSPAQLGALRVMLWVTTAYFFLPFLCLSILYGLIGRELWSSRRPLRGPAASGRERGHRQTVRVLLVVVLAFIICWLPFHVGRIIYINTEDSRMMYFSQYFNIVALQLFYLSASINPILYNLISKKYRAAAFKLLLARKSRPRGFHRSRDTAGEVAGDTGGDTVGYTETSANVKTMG

Structure (SMILES) | AC50 [1] [µM] | AC50 (Adenosine receptor A3) [µM] | AC50 (Motilin receptor) [µM] | AC50 [2] [µM] | AC50 [3] [µM] | AC50 (Progesterone receptor) [µM]
CC(=O)OCC(=O)[C@@]12N=C(C)O[C@@H]1C[C@H]1[C@@H]3CCC4=CC(=O)C=C[C@]4(C)[C@H]3[C@@H](O)C[C@@]12C [DEFLAZACORT] | > 30 | > 30 | > 30 | > 30 | > 30 | 
CC(C)(C)C(=O)Oc1ccc(S(=O)(=O)Nc2ccccc2C(=O)NCC(=O)O)cc1 | > 30 | > 30 | > 30 | > 30 | > 30 | > 30
O=C(O)/C=C/c1ccc(Cn2ccnc2)cc1 [OZAGREL] | > 30 | > 30 | > 30 | > 30 | > 30 | > 30
Cc1ccc(-n2nccn2)c(C(=O)N2CCN(c3nc4cc(Cl)ccc4o3)CC[C@H]2C)c1 [SUVOREXANT] | > 30 | > 10 | > 30 | > 30 | > 30 | > 30
CCC(C(=O)O)c1ccc(N2Cc3ccccc3C2=O)cc1 (centres undefined) [INDOBUFEN] | > 30 | > 30 | > 30 | 0.8 | > 30 | > 30
Cn1c(=O)c2c(ncn2CC2OCCO2)n(C)c1=O [DOXOFYLLINE] |  | > 30 | > 30 | > 30 |  | > 30
COc1ccc(-c2ccc3cc(C(=O)O)ccc3c2)cc1C12CC3CC(CC(C3)C1)C2 | > 30 | > 30 | > 30 | > 30 | > 30 | 4.2
C=CCN1CCCC1CNC(=O)c1cc(S(N)(=O)=O)cc(OC)c1OC (centres undefined) [VERALIPRIDE] | > 30 | > 30 | > 30 | > 30 | 24 | > 30
CCOC(=O)OC(C)OC1=C(C(=O)Nc2ccccn2)N(C)S(=O)(=O)c2ccccc21 (centres undefined) [AMPIROXICAM] |  | > 30 | > 30 | > 30 |  | > 30
CC(C)C(=O)c1c(C(C)C)nn2ccccc12 [IBUDILAST] | > 30 | > 30 | > 30 | > 30 | > 30 | > 30
Clc1ccc(CCCOCCCN2CCCCC2)cc1 [PITOLISANT] | > 30 | > 30 | > 30 | > 30 | > 30 | > 30
CCCCCCOc1ccccc1C(N)=O [EXALAMIDE] | > 30 | > 30 | > 30 | > 30 | > 30 | > 30
CCOC(=O)[N-]c1cn(N2CCOCC2)n[o+]1 [MOLSIDOMINE] | > 30 | > 30 | > 30 | 24 | > 30 | > 30
OC(CNCC(O)C1CCc2cc(F)ccc2O1)C1CCc2cc(F)ccc2O1 (centres undefined) [NEBIVOLOL] | 19 | 19 | 21 | > 30 | 7.1 | > 30
CC(C)OC(=O)CCC/C=C\C[C@@H]1[C@@H](CC[C@@H](O)CCc2ccccc2)[C@H](O)C[C@@H]1O [LATANOPROST] | > 30 | > 30 | > 30 | > 30 | > 30 | > 30
CNC(C)CCC=C(C)C (centres undefined) [ISOMETHEPTENE] |  | > 30 | > 30 | > 30 |  | > 30
Nc1nc(N)nc(-c2cc(Cl)ccc2Cl)n1 [IRSOGLADINE] |  | > 30 | > 30 | > 30 |  | > 30
CC(=O)O[C@H]1C[C@@H]2CC[C@@H]3[C@H](CC[C@@]4(C)[C@H]3C[C@H]([N+]3(C)CCCCC3)[C@@H]4OC(C)=O)[C@@]2(C)C[C@@H]1N1CCCCC1 [VECURONIUM] |  | > 30 | > 30 | 14 |  | > 30
COc1ccc(CCN(C)CCCC(C#N)(c2cc(OC)c(OC)c(OC)c2)C(C)C)cc1OC (centres undefined) [GALLOPAMIL] | > 30 | > 30 | > 30 | > 30 | 3.6 | 
CC(C)=CCC/C(C)=C/C=C/C(C)=C/C=C/C(C)=C/C=C/C=C(C)/C=C/C=C(C)/C=C/C=C(\C)CCC=C(C)C [LYCOPENE] | > 30 | > 30 | > 30 | > 30 | > 30 | 6.2
CN1C(=O)C(O)N=C(c2ccccc2Cl)c2cc(Cl)ccc21 (centres undefined) [LORMETAZEPAM] | > 30 | > 30 | > 30 | > 10 | > 30 | > 30
CCOC(=O)[C@H](CCc1ccccc1)N[C@@H](C)C(=O)N1C(=O)N(C)C[C@H]1C(=O)O | > 30 | > 30 | > 30 | 12 | > 30 | > 30
COc1ccc2c3c1O[C@H]1C(=O)CC[C@@]4(O)[C@@H](C2)N(C)CC[C@]314 [OXYCODONE] | > 30 | > 30 | > 30 | > 30 | > 30 | > 30
CC(CC(c1ccccc1)c1ccccc1)NC(C)(C)C (centres undefined) [TERODILINE] | 1.4 | > 30 | > 30 | > 30 | > 30 | > 30
CO/N=C(\C(=O)N[C@@H]1C(=O)N2C(C(=O)O)=C(CSc3nnnn3C)CS[C@H]12)c1csc(N)n1 [CEFMENOXIME] | > 30 | > 30 | > 30 | > 30 | > 30 | 1.8
O=C(O)CCCCCCNC1c2ccccc2CCc2ccccc21 [AMINEPTINE] | > 30 | > 30 | > 30 | > 30 | > 30 | > 30
CCN1CCN(C(=O)N[C@@H](C(=O)N[C@@H]2C(=O)N3C(C(=O)O)=C(CSc4nnnn4C)CS[C@H]23)c2ccc(O)cc2)C(=O)C1=O [CEFOPERAZONE] | > 30 | > 30 | > 30 | > 30 | > 30 | 
CCN(CC)C(=O)N[C@H]1C[C@@H]2c3cccc4[nH]cc(c34)C[C@H]2N(C)C1 [TERGURIDE] | > 30 | > 30 | > 30 | > 30 |  | > 30
